Assay results: PubChem BioAssay AID1963968 (Molecular Pharmacology Branch, DTP, NCI, 2024)

Test system: 945468-187-T-J3-PDC spheroids with HUVEC/MSC, viability
Assay: Anticancer human tumor 945468-187-T-J3-PDC patient-derived rectal carcinoma cell line growth inhibition [PI3K]
Settings: for IC50: curve of first compound; for viability, T/C: stronger effect = lower value
Procedure, shortened: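 Viability of mixed-cell spheroids was determined after exposure to pairwise combinations, one partner being inavolisib, alpelisib, duvelisib or copanlisib. Highest tested concentration matched clinical Cmax where known and 10 microM where not, descending in half-log steps.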

[1] = second compound 0.0316 µM, first compound 0.0316 µM
[2] = second compound 0.0316 µM, first compound 0.1 µM
[3] = second compound 0.0316 µM, first compound 0.316 µM
[4] = second compound 0.0316 µM, first compound 1 µM
[5] = second compound 0.1 µM, first compound 0.0316 µM
[6] = second compound 0.1 µM, first compound 0.1 µM
[7] = second compound 0.1 µM, first compound 0.316 µM
[8] = second compound 0.1 µM, first compound 1 µM
[9] = second compound 0.316 µM, first compound 0.0316 µM
[10] = second compound 0.316 µM, first compound 0.1 µM
[11] = second compound 0.316 µM, first compound 0.316 µM
[12] = second compound 0.316 µM, first compound 1 µM
[13] = second compound 1 µM, first compound 0.0316 µM
[14] = second compound 1 µM, first compound 0.1 µM
[15] = second compound 1 µM, first compound 0.316 µM
[16] = second compound 1 µM, first compound 1 µM
[17] = second compound 3.16 µM, first compound 0.0316 µM
[18] = second compound 3.16 µM, first compound 0.1 µM
[19] = second compound 3.16 µM, first compound 0.316 µM
[20] = second compound 3.16 µM, first compound 1 µM
[21] = second compound 10 µM, first compound 0.0316 µM
[22] = second compound 10 µM, first compound 0.1 µM
[23] = second compound 10 µM, first compound 0.316 µM
[24] = second compound 10 µM, first compound 1 µM
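Further: spheroids exposed to agents for 7 days before viability read.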
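Wherever viability, T/C is given: 100% = DMSO vehicle control viability.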

SMILES: CC(C)NCC(C(=O)N1CCN(c2ncnc3c2C(C)CC3O)CC1)c1ccc(Cl)cc1 (centres undefined) + CC(Nc1ncnc2nc[nH]c12)c1cc2cccc(Cl)c2c(=O)n1-c1ccccc1
- IC50 (second compound 0.0316 µM): 4.58 µM
- IC50 (second compound 0.1 µM): 6.84 µM
- IC50 (second compound 0.316 µM): 6.66 µM
- IC50 (second compound 1 µM): 8.31 µM
- IC50 (second compound 3.16 µM): 2.97 µM
- IC50 (second compound 10 µM): 2.06 µM
- viability, T/C [1]: 112%
- viability, T/C [2]: 100%
- viability, T/C [3]: 104%
- viability, T/C [4]: 78.9%
- viability, T/C (second compound 0.0316 µM, first compound 3.16 µM): 56.3%
- viability, T/C (second compound 0.0316 µM, first compound 10 µM): 38.4%
- viability, T/C [5]: 119%
- viability, T/C [6]: 92.3%
- viability, T/C [7]: 86%
- viability, T/C [8]: 88.6%
- viability, T/C (second compound 0.1 µM, first compound 3.16 µM): 62.6%
- viability, T/C (second compound 0.1 µM, first compound 10 µM): 40.5%
- viability, T/C [9]: 97.2%
- viability, T/C [10]: 93.2%
- viability, T/C [11]: 94.6%
- viability, T/C [12]: 87.6%
- viability, T/C (second compound 0.316 µM, first compound 3.16 µM): 63.5%
- viability, T/C (second compound 0.316 µM, first compound 10 µM): 42.7%
- viability, T/C [13]: 114%
- viability, T/C [14]: 103%
- viability, T/C [15]: 85.3%
- viability, T/C [16]: 86%
- viability, T/C (second compound 1 µM, first compound 3.16 µM): 58.6%
- viability, T/C (second compound 1 µM, first compound 10 µM): 48.1%
- viability, T/C [17]: 98.3%
- viability, T/C [18]: 91.8%
- viability, T/C [19]: 84.2%
- viability, T/C [20]: 79.2%
- viability, T/C (second compound 3.16 µM, first compound 3.16 µM): 46.5%
- viability, T/C (second compound 3.16 µM, first compound 10 µM): 32.4%
- viability, T/C [21]: 90.7%
- viability, T/C [22]: 88%
- viability, T/C [23]: 82.8%
- viability, T/C [24]: 70.8%
- viability, T/C (second compound 10 µM, first compound 3.16 µM): 37.5%
- viability, T/C (second compound 10 µM, first compound 10 µM): 28.2%

SMILES: CCN1CCN(Cc2ccc(Nc3ncc(F)c(-c4cc(F)c5nc(C)n(C(C)C)c5c4)n3)nc2)CC1 + CC(Nc1ncnc2nc[nH]c12)c1cc2cccc(Cl)c2c(=O)n1-c1ccccc1
- IC50 (second compound 0.0316 µM): > 1 µM
- IC50 (second compound 0.1 µM): > 1 µM
- IC50 (second compound 0.316 µM): > 1 µM
- IC50 (second compound 1 µM): > 1 µM
- IC50 (second compound 3.16 µM): > 1 µM
- IC50 (second compound 10 µM): 0.762 µM
- viability, T/C (second compound 0.0316 µM, first compound 0.00316 µM): 88.7%
- viability, T/C (second compound 0.0316 µM, first compound 0.01 µM): 110%
- viability, T/C [1]: 107%
- viability, T/C [2]: 94%
- viability, T/C [3]: 102%
- viability, T/C [4]: 79.2%
- viability, T/C (second compound 0.1 µM, first compound 0.00316 µM): 91.5%
- viability, T/C (second compound 0.1 µM, first compound 0.01 µM): 85.3%
- viability, T/C [5]: 99%
- viability, T/C [6]: 99.5%
- viability, T/C [7]: 102%
- viability, T/C [8]: 72%
- viability, T/C (second compound 0.316 µM, first compound 0.00316 µM): 97.3%
- viability, T/C (second compound 0.316 µM, first compound 0.01 µM): 91%
- viability, T/C [9]: 89.8%
- viability, T/C [10]: 113%
- viability, T/C [11]: 106%
- viability, T/C [12]: 72.8%
- viability, T/C (second compound 1 µM, first compound 0.00316 µM): 87.8%
- viability, T/C (second compound 1 µM, first compound 0.01 µM): 95.9%
- viability, T/C [13]: 91.3%
- viability, T/C [14]: 103%
- viability, T/C [15]: 93.8%
- viability, T/C [16]: 69.2%
- viability, T/C (second compound 3.16 µM, first compound 0.00316 µM): 93.9%
- viability, T/C (second compound 3.16 µM, first compound 0.01 µM): 101%
- viability, T/C [17]: 103%
- viability, T/C [18]: 95.1%
- viability, T/C [19]: 93%
- viability, T/C [20]: 52.5%
- viability, T/C (second compound 10 µM, first compound 0.00316 µM): 91.5%
- viability, T/C (second compound 10 µM, first compound 0.01 µM): 89.5%
- viability, T/C [21]: 91%
- viability, T/C [22]: 106%
- viability, T/C [23]: 90%
- viability, T/C [24]: 37.1%
